How the values were obtained:
2-epimerase = format: binding, B. anthracis
PAK4 = PAK4 (Homo sapiens, UniProt O96013, L310A); format: binding
PAK4, sequence (O96013 300-591 L310A limits assumed): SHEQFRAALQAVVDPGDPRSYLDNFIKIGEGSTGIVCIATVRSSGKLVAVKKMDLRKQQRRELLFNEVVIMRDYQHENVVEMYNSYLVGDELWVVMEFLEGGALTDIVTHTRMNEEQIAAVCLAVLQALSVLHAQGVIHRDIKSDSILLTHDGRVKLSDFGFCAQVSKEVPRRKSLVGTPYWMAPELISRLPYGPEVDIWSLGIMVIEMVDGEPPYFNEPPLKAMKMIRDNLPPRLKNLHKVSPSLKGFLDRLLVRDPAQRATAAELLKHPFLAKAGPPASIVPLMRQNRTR

Row | SMILES | competition with UDP-GlcNAc by LO-NMR (2-epimerase) | binding by competitive LO-NMR (PAK4)
1 | O=S(=O)(CCCn1cc(CCNS(=O)(=O)c2ccc(Br)cc2Cl)nn1)Nc1ccc(Nc2ccc(C(F)(F)F)nn2)cc1 [compound 4] | competitive with UDP-GlcNAc | –
2 | CNC(=O)c1cnn2ccc(C#N)cc12 [compound 5] | – | consistent with binding to the ATP-binding site
